System: TFEB
Assay: TFEB nuclear translocation assay, HeLa wt cells
Assay type: cell-based
Conditions: 2 hrs compound treatment, Table 1 does not say HeLa wt or TRPML1 KO
How it was run: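 HeLa wt, 2 hr compound, 37° C; 4% PFA fix; anti-TFEB (rabbit, 1:200, overnight 4° C) + Alexa 488 secondary, Hoechst. Imaged ×20, 4 fields/well. Readout: nuclear/ring Alexa 488 intensity ratio; AC50.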

Compound | AC50 (Homo sapiens, HeLa, 2 h) | AC50
CN(C)S(=O)(=O)c1ccc(S(=O)(=O)Nc2cccc(F)c2N2CCC(N3CCC34CCCOC4)CC2)cc1 (stereo not drawn) [Compound A-917, N4-[3-fluoro-2-(4-{6-oxa-1-azaspiro[3.5]nonan-1-yl}piperidin-1-yl)phenyl]-N1,N1-dimethylbenzene-1,4-disulfonamide] | 2.01 to 8 µM | 
CN1CC2(CCN(c3c(F)cccc3NS(=O)(=O)c3ccc(S(=O)(=O)N(C)C)cc3)CC2)OC1=O [Compound A-764, N4-(3-fluoro-2-{3-methyl-2-oxo-1-oxa-3,8-diazaspiro[4.5]decan-8-yl}phenyl)-N1,N1-dimethylbenzene-1,4-disulfonamide] | 2.01 to 8 µM | 
COCC1(C)CCN(c2ccccc2NS(=O)(=O)Cc2ccccc2Cl)CC1 [Compound A-601, 1-(2-chlorophenyl)-N-{2-[4-(methoxymethyl)-4-methylpiperidin-1-yl]phenyl}methanesulfonamide] | 2.01 to 8 µM | 
Cc1cnc(N2CCC(CN3CCC(F)(F)CC3)CC2)c(C(C)S(=O)(=O)c2ccc(S(=O)(=O)N(C)C)cc2)c1 (single isomer, unassigned) [Compound A-990, 4-((1-(2-(4-((4,4-difluoropiperidin-1-yl)methyl)piperidin-1-yl)-5-methylpyridin-3-yl)ethyl)sulfonyl)-N,N-dimethylbenzenesulfonamide] |  | ≤ 2 µM
O=C(c1ccc(S(=O)(=O)Nc2ccccc2N2CCC(c3ccc(Cl)cc3F)CC2)cc1)N1CCCC1 [Compound A-49, N-{2-[4-(4-chloro-2-fluorophenyl)piperidin-1-yl]phenyl}-4-(pyrrolidine-1-carbonyl)benzene-1-sulfonamide] | ≥ 10 µM | 
C[C@H](c1cccc(F)c1N1CCCCC1)S(=O)(=O)c1ccc(S(=N)(=O)N(C)C)cc1 (single isomer, unassigned) [Compound A-894] |  | 2.01 to 8 µM
CN(C)S(=O)(=O)c1ccc(S(=O)(=O)Nc2nnc(C3CCN(c4ccc(Cl)cc4F)CC3)s2)cc1 [Compound A-64, N1-(5-(1-(4-chloro-2-fluorophenyl)piperidin-4-yl)-1,3,4-thiadiazol-2-yl)-N4,N4-dimethylbenzene-1,4-disulfonamide] | ≥ 10 µM | 
Cc1cnc(N2CCC(CN3CCC(F)(F)CC3)CC2)c(C(C)S(=O)(=O)c2ccc3c(c2)CCC3)c1 (single isomer, unassigned) [Compound A-1000, 2-(4-((4,4-difluoropiperidin-1-yl)methyl)piperidin-1-yl)-3-(1-((2,3-dihydro-1H-inden-5-yl)sulfonyl)ethyl)-5-methylpyridine] |  | ≥ 10 µM
CN(C)S(=O)(=O)c1ccc(S(=O)(=O)Nc2ccccc2N2CCC(O)(C(C)(C)C)CC2)cc1 [Compound A-471, N1-(2-(4-(tert-butyl)-4-hydroxypiperidin-1-yl)phenyl)-N4,N4-dimethylbenzene-1,4-disulfonamide] | ≤ 2 µM | 
Cc1cc(NS(=O)(=O)c2ccc(S(=O)(=O)N(C)C)cc2)n(C2CCCCC2)c(=O)c1 [Compound A-934, N4-(1-cyclohexyl-4-methyl-6-oxo-1,6-dihydropyridin-2-yl)-N1,N1-dimethylbenzene-1,4-disulfonamide] | ≥ 10 µM | 
CN(C)S(=O)(=O)c1ccc(S(=O)(=O)Nc2cccc(C(F)F)c2N2CCC3(CC2)COC(C)(C)C3)cc1 [Compound A-753, N4-[3-(difluoromethyl)-2-{3,3-dimethyl-2-oxa-8-azaspiro[4.5]decan-8-yl}phenyl]-N1,N1-dimethylbenzene-1,4-disulfonamide] | ≤ 2 µM | 
CC(C)CN1CCN(c2ccccc2CS(=O)(=O)c2ccc(S(=O)(=O)N(C)C)cc2)CC1 [Compound A-599, N,N-dimethyl-4-({2-[4-(2-methylpropyl)piperazin-1-yl]phenyl}methanesulfonyl)benzene-1-sulfonamide] | 2.01 to 8 µM | 
CC(c1cccc(F)c1N1CCCCC1)S(=O)(=O)c1ccc(S2(=O)=NCCC2)cc1 (single isomer, unassigned) [Compound A-981, 1-(4-((1-(3-fluoro-2-(piperidin-1-yl)phenyl)ethyl)sulfonyl)phenyl)-4,5-dihydro-3H-isothiazole 1-oxide] |  | ≥ 10 µM
COC(C)(C)c1cccc(S(=O)(=O)Nc2ccccc2N2CCC3(CC2)COC(C)(C)C3)c1 [Compound A-634, N-(2-{3,3-dimethyl-2-oxa-8-azaspiro[4.5]decan-8-yl}phenyl)-3-(2-methoxypropan-2-yl)benzene-1-sulfonamide] | 2.01 to 8 µM | 
COCC1(C)CCN(c2ccccc2NS(=O)(=O)Cc2ccc(C(F)F)cc2)CC1 [Compound A-647, 1-[4-(difluoromethyl)phenyl]-N-{2-[4-(methoxymethyl)-4-methylpiperidin-1-yl]phenyl}methanesulfonamide] | 8.01 to 9.99 µM | 
Cc1ccc(S(=O)(=O)Nc2ccccc2N2CCC(O)(c3ccc(F)cn3)CC2)cc1 [Compound A-408, N-{2-[4-(5-fluoropyridin-2-yl)-4-hydroxypiperidin-1-yl]phenyl}-4-methylbenzene-1-sulfonamide] | ≥ 10 µM | 
CS(=O)(=O)c1ccc(S(=O)(=O)Nc2ccccc2N2CCC3(CC2)COc2cc(F)ccc23)cc1 [Compound A-319, N-(2-{6-fluoro-2H-spiro[1-benzofuran-3,4′-piperidin]-1′-yl}phenyl)-4-methanesulfonylbenzene-1-sulfonamide] | ≤ 2 µM | 

Compound | AC50 (Homo sapiens, HeLa, 2 h) | AC50
Cc1ccc(S(=O)(=O)Nc2ccccc2N2CCN(C(=O)C(=O)c3ccccc3)CC2)cc1 [Compound A-350, 4-methyl-N-{2-[4-(2-oxo-2-phenylacetyl)piperazin-1-yl]phenyl}benzene-1-sulfonamide] | 2.01 to 8 µM | 
COCC1CCN(c2ccccc2NS(=O)(=O)c2ccc3c(c2)CC(C)(C)O3)CC1 [Compound A-614, N-{2-[4-(methoxymethyl)piperidin-1-yl]phenyl}-2,2-dimethyl-2,3-dihydro-1-benzofuran-5-sulfonamide] | ≤ 2 µM | 
COCC1(C)CCN(c2c(NS(=O)(=O)c3ccc(S(=O)(=O)N(C)C)cc3)ccc3nccn23)CC1 [Compound A-813, N4-{5-[4-(methoxymethyl)-4-methylpiperidin-1-yl]imidazo[1,2-a]pyridin-6-yl}-N1,N1-dimethylbenzene-1,4-disulfonamide] | ≥ 10 µM | 
COCC1(C)CCN(c2ccccc2NS(=O)(=O)Cc2cccc(S(=O)(=O)COC)c2)CC1 [Compound A-744, 1-(3-methoxymethanesulfonylphenyl)-N-{2-[4-(methoxymethyl)-4-methylpiperidin-1-yl]phenyl}methanesulfonamide] | ≥ 10 µM | 
Cc1nn(S(=O)(=O)c2ccc(S(=O)(=O)N(C)C)cc2)cc1N1CCN(c2ccc(Cl)cc2F)CC1=O [Compound A-306, 4-({4-[4-(4-chloro-2-fluorophenyl)-2-oxopiperazin-1-yl]-3-methyl-1H-pyrazol-1-yl}sulfonyl)-N,N-dimethylbenzene-1-sulfonamide] | ≥ 10 µM | 
CC(C)(C)C(=O)N1CCN(c2ccccc2NS(=O)(=O)c2ccc(OC3CC3)cc2)CC1 [Compound A-576, 4-cyclopropoxy-N-{2-[4-(2,2-dimethylpropanoyl)piperazin-1-yl]phenyl}benzene-1-sulfonamide] | ≥ 10 µM | 
COC1(C)CCN(c2ccccc2NS(=O)(=O)c2ccc(S(=O)(=O)N(C)C)cc2)CC1 [Compound A-454, N4-[2-(4-methoxy-4-methylpiperidin-1-yl)phenyl]-N1,N1-dimethylbenzene-1,4-disulfonamide] | ≤ 2 µM | 
CC(C)(C)C(=O)N1CCN(c2ccccc2NS(=O)(=O)c2ccc(C(C)(C)C)cc2)CC1 [Compound A-516, 4-tert-butyl-N-{2-[4-(2,2-dimethylpropanoyl)piperazin-1-yl]phenyl}benzene-1-sulfonamide] | 2.01 to 8 µM | 
O=S(=O)(Nc1cccc(F)c1N1CCC(CN2C3CCC2COC3)CC1)c1ccc2c(c1)CCC2 [Compound A-882, N-{3-fluoro-2-[4-({3-oxa-8-azabicyclo[3.2.1]octan-8-yl}methyl)piperidin-1-yl]phenyl}-2,3-dihydro-1H-indene-5-sulfonamide] | ≤ 2 µM | 
CN1CC2(CCN(c3ccccc3N(C)S(=O)(=O)c3ccc(S(=O)(=O)N(C)C)cc3)CC2)c2ccc(F)cc21 [Compound A-243, N1-(2-{6-fluoro-1-methyl-1,2-dihydrospiro[indole-3,4′-piperidin]-1′-yl}phenyl)-N1,N4,N4-trimethylbenzene-1,4-disulfonamide] | ≤ 2 µM | 
O=S(=O)(Nc1ccccc1N1CCC(c2ccc(Cl)cc2F)CC1)c1cc(F)ccc1F [Compound A-82, N-{2-[4-(4-chloro-2-fluorophenyl)piperidin-1-yl]phenyl}-2,5-difluorobenzene-1-sulfonamide] | ≥ 10 µM | 
COCCOCCOCCN(C)S(=O)(=O)c1ccc(S(=O)(=O)Nc2ccccc2N2CCC(c3ccc(Cl)cc3F)CC2)cc1 [Compound A-587, N4-{2-[4-(4-chloro-2-fluorophenyl)piperidin-1-yl]phenyl}-N1-{2-[2-(2-methoxyethoxy)ethoxy]ethyl}-N1-methylbenzene-1,4-disulfonamide] | 2.01 to 8 µM | 
CN(C)S(=N)(=O)c1ccc(S(=O)(=O)Nc2ccc(F)cc2N2CCC(c3c(F)cccc3F)CC2)cc1 (stereo not drawn) [Compound A-226, 4-({2-[4-(2,6-difluorophenyl)piperidin-1-yl]-4-fluorophenyl}sulfamoyl)-N,N-dimethylbenzene-1-sulfonoimidamide] | ≤ 2 µM | 
O=C1COCCN1c1ccc(Cl)cc1NS(=O)(=O)c1ccc2c(c1)CCC2 [Compound A-326, N-[5-chloro-2-(3-oxomorpholin-4-yl)phenyl]-2,3-dihydro-1H-indene-5-sulfonamide] | ≥ 10 µM | 
COCC1(C)CCN(c2ccccc2NS(=O)(=O)c2ccc3c(c2)CCC(C(F)F)O3)CC1 (stereo not drawn) [Compound A-644, 2-(difluoromethyl)-N-{2-[4-(methoxymethyl)-4-methylpiperidin-1-yl]phenyl}-3,4-dihydro-2H-1-benzopyran-6-sulfonamide] | 2.01 to 8 µM | 
COCC1(C)CCN(c2ccccc2NS(=O)(=O)Cc2ccccc2OC)CC1 [Compound A-595, N-{2-[4-(methoxymethyl)-4-methylpiperidin-1-yl]phenyl}-1-(2-methoxyphenyl)methanesulfonamide] | 2.01 to 8 µM | 

— patent US20230104936A1, “TRPML MODULATORS” (Casma Therapeutics, Inc., priority 2019, published 2023)
